One assay has as its target T1, mMC1r (Mus musculus, UniProt Q01727).
T1 construct: endogenous in cells; host or cells: B16-F1
Kind of assay: cAMP assay mMC1r (B16-F1 cells, NDP-α-MSH reference). It is filed as cell-based. As for the experimental part: (§1) Melanocortin receptor binding and function of Compound 7.1 was tested. Ki binding values (nM) were calculated utilizing the percent inhibit of the binding of iodine-125 labeled NDP-α-MSH against B16-F1 cells for mMC1r, and human recombinant CHO cells for hMC3r, hMC4r and hMC5r, with the inhibition constant calculated using the Cheng Prusoff equation. Functional results (EC50 and efficacy) were calculated utilizing cAMP assays with NDP-α-MSH for mMC1r, hMC3r and hMC4r, ACTH for hMC2r, and α-MSH for hMC5r for agonist measures, with the same target cells for melanocortin receptors mMC1r, hMC3r, hMC4r and hMC5r, and human recombinant Cloudman M3 cells for hMC2r.

A further assay has as its target MC4r (Homo sapiens, UniProt P32245). The assay can be described thus: Binding of iodine-125 labeled NDP-α-MSH, human recombinant CHO cells, hMC4r. Set-up: expressed in transfected cells; host or cells: CHO. The method, then:
as §1

Sequence of MC4r (P32245 whole entry): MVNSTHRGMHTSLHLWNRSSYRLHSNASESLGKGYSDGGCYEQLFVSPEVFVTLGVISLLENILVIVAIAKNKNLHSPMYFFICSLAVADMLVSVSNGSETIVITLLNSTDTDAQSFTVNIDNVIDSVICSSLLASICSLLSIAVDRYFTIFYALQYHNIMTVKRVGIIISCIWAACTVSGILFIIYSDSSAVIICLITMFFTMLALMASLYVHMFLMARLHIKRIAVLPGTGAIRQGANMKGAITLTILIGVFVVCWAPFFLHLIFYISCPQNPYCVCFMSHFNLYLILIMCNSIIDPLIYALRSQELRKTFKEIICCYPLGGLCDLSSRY
T1 sequence (Q01727 whole entry): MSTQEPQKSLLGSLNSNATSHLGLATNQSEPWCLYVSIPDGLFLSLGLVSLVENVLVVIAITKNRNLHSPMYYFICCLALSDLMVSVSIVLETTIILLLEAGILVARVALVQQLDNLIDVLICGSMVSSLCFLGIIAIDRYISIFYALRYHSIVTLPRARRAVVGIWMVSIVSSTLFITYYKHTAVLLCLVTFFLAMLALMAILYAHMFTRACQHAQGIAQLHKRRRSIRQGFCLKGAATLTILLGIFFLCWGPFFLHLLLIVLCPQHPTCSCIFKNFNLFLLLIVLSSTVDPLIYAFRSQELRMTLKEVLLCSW

The EC50 is the concentration needed to bring the measured effect to its halfway point. Low readings indicate higher potency in that assay, high ones lower potency in that assay. By Ki is commonly meant a dissociation constant, usually derived from enzyme kinetics or from competition with a known ligand. Compound `CC(=O)N1CCC(N(CC(C)C)N2CCN(C(=O)[C@@H](Cc3ccc(Cl)cc3)NC(=O)C(C)(C)N)CC2)CC1` [Compound 7.1, N-[(1R)-2-[4-[(1-acetyl-4-piperidyl)-isobutyl-amino]piperazin-1-yl]-1-[(4-chlorophenyl)methyl]-2-oxo-ethyl]-2-amino-2-methyl-propanamide] displayed an EC50 on mMC1r of 460 nM. Also, on MC4r, the Ki was 14 nM.

(Values after US20210198201A1, “Orally Active Melanocortin Receptor-4 Compounds” (Palatin Technologies, Inc., priority 2018, published 2021).)
